In patent EP2662079A1 (Ordway Research Institute, Inc., priority 2012, dated 2013):
“And” between values parts separate entries of the source, which are not always exact repeats. Equal entries are not always repeated.

Tests used:
[1] = test system: chick chorioallantoic membrane (CAM); test: Chorioallantoic membrane (CAM) model of angiogenesis; type: in vivo
Method: In vivo neovascularization was examined by methods described previously. 9-12 Ten-day-old chick embryos were purchased from SPAFAS (Preston, CT) and incubated at 37°C with 55% relative humidity. A hypodermic needle was used to make a small hole in the shell concealing the air sac, and a second hole was made on the broad side of the egg, directly over an avascular portion of the embryonic membrane that was identified by candling. A false air sac was created beneath the second hole by the application of negative pressure at the first hole, causing the CAM to separate from the shell. A window approximately 1.0 cm^2 was cut in the shell over the dropped CAM with a small-crafts grinding wheel (Dremel, division of Emerson Electric Co.), allowing direct access to the underlying CAM. FGF2 (1µg/mL) was used as a standard proangiogenic agent to induce new blood vessel branches on the CAM of 10-day-old embryos. Sterile disks of No. 1 filter paper (Whatman International) were pretreated with 3 mg/mL cortisone acetate and 1 mmol/L PTU and air dried under sterile conditions. Thyroid hormone, hormone analogs, FGF2 or control solvents, and inhibitors were then applied to the disks and the disks allowed to dry. The disks were then suspended in PBS and placed on growing CAMs. […] At 24 hours, the MAPK cascade inhibitor PD 98059 was also added to CAMs topically by means of the filter disks.
After incubation at 37°C with 55% relative humidity for 3 days, the CAM tissue directly beneath each filter disk was resected from control and treated CAM samples. Tissues were washed 3X with PBS, placed in 35-mm Petri dishes (Nalge Nunc), and examined under an SV6 stereomicroscope (Zeiss) at X50 magnification. Digital images of CAM sections exposed to filters were collected using a 3-charge-coupled device color video camera system (Toshiba) and analyzed with Image-Pro software (Media Cybernetics). The number of vessel branch points contained in a circular region equal to the area of each filter disk were counted. One image was counted in each CAM preparation, and findings from 8 to 10 CAM preparations were analyzed for each treatment condition (thyroid hormone or analogs, FGF2, FGF2 antibody, PD 98059). In addition, each experiment was performed 3 times. The resulting angiogenesis index is the mean ± SEM of new branch points.

[2] = test system: GL261 murine brain tumor cells; test: GL261 growth curve, cell size and colony forming efficiency; type: cell-based
Method: 1 x 10^5 cells per 25 cm^2 flask at time zero (density 40 cells/mm^2). Three flasks were utilized at each time period. The medium in the flasks was not changed over the duration of the growth curve (unfed cultures). Data were taken daily from day zero to day 11.5 post-seeding and cell numbers, age distributions, and apoptotic percentages were determined. After growth curve shapes (without and with 2 µM Tetrac) were determined, irradiation times at 70 and 270 hour post-seeding were chosen.
To obtain exponential and plateau phase cell numbers, we trypsinized ([…] trypsin-EDTA) cells for 5 min at 37°C.
For determination of CCDTs, the cell numbers per flask were determined on a daily basis. A four-day interval in the exponential region of growth to obtain the CCDTs, yielding a total of 12 estimations for analysis was utilized. A regression analysis was performed using the (log) of the cell number versus the linear time in days (SigmaPlot, V. 10, Systat Software, Inc., Point Richmond, CA). The log slope value and its standard error (SE) were determined, and the SE was converted to the 95% confidence limits using a two-tailed t-table at N-1 degrees of freedom where N is the number of samples. (See Goldstein, A. In: Biostatistics, New York, The MacMillan Co., 1964, p. 140-146).

GL261 cells = test: Potentially lethal damage repair (PLDR); type: cell-based, murine
Method: PLDR was also measured using the 10% survival level in both control and Tetrac treated-cells, and was also done for both exponentially growing and plateau phase cells. The total 10% survival dose was given, and then cells were placed back into the 37°C incubator for various periods of time. At 0, 0.5, 1.0, 1.5, 2.0, 3.0, 4.0, 6.0, 8.0, and 10.0 hours, flasks were removed, and processed for survival assessment.
To investigate the effects of Tetrac on SLDR and PLDR, cells were chosen that had been given a one-hour treatment with Tetrac at two different times, i.e., at 70 and 270 hours post-seeding).

For `O=C(O)Cc1cc(I)c(Oc2cc(I)c(O)c(I)c2)c(I)c1` [Tetrac, 3,3',5,5'-tetraiodothyroacetic acid], the “effect of Tetrac alone on angiogenesis” value ([1]; CAM model (Figure 3C)) was “no effect”, the “Mean Branch points” value ([1]; CAM model, FGF (1.25 µg/ml) + compound at 10 µg/plug, n=8) was 81± 8 and the “effect on the action of T4 in the CAM model” value ([1]; Tetrac 0.1 µmol/L) was “inhibited”. For the same compound, the “saturation density of control cells relative to Tetrac-treated cells” value [2] was “approximately 2.4 times”, the cell doubling time ([2]; Tetrac-treated GL261 cells, 2 µM, exponential growth) was 43.8 ± 3.8 h and 43.8 h and the “factor by which Tetrac inhibited PLDR” value (GL261 cells; exponential cells) was 1.9. For the same compound, the “factor by which Tetrac decreased PLDR expression” value (GL261 cells; plateau phase cells) was 3.4.
